Usually MIC90 stands for an inhibitory concentration at the 90% level, which refers to growth in some studies and to a panel of isolates in others. Read a high MIC90 as lower susceptibility.

Test [1] has as its system Bacteroides. As to the kind of experiment: Antimicrobial activity against Bacteroides group obtained from patient with Clostridium difficile infection assessed as bacterial count per gram of wet stool at 50 mg/kg, po BID measured on day 10 by the two-tailed Wilcoxon matched-pair, signed-rank test. Format: functional, Feces.
Test [2] deals with Clostridioides difficile. The experiment in a line: Antimicrobial activity against Clostridium difficile obtained from patient with Clostridium difficile infection assessed as bacterial count per gram of wet stool at 200 mg/kg, po BID measured on day 8 by the two-tailed Wilcoxon matched-pair, signed-rank test. The settings on record: Feces. Details: dose 200 mg/kg. The test is classed as functional, organism-based.

Test [3] relates to Clostridioides difficile. As to the kind of experiment: Antimicrobial activity against Clostridium difficile obtained from patient with Clostridium difficile infection assessed as bacterial count per gram of wet stool at 50 mg/kg, po BID measured at 21 to 28 days by the two-tailed Wilcoxon matched-pair, signed-rank test. The test is classed as functional, Feces.
Test [4] concerns Clostridioides difficile. As to the kind of experiment: Antimicrobial activity against Clostridium difficile obtained from patient with Clostridium difficile infection assessed as bacterial count per gram of wet stool at 200 mg/kg, po BID measured at 21 to 28 days by the two-tailed Wilcoxon matched-pair, signed-rank test. Format: functional, Feces.
In test [5] the test system is Clostridioides difficile. As to the kind of experiment: Antimicrobial activity against Clostridium difficile obtained from patient with Clostridium difficile infection assessed as reduction in bacterial cytotoxin B in patients at 200 mg/kg, po BID measured at 21 to 28 days by the two-tailed Wilcoxon matched-pair, signed-rank test. Details: dose 200 mg/kg. The test is classed as functional, organism-based.

In test [6] the test system is Bacteroides. As to the kind of experiment: Antimicrobial activity against Bacteroides group obtained from patient with Clostridium difficile infection assessed as bacterial count per gram of wet stool at 200 mg/kg, po BID measured on day 10 by the two-tailed Wilcoxon matched-pair, signed-rank test. The test is classed as functional, Feces.
The test system of test [7] is Clostridioides difficile. The experiment in a line: Antimicrobial activity against Clostridium difficile obtained from patient with Clostridium difficile infection assessed as bacterial count per gram of wet stool at 50 mg/kg, po BID measured on day 4 by the two-tailed Wilcoxon matched-pair, signed-rank test. The test is classed as functional, organism-based. Also on record: dose 50 mg/kg. The settings on record: Feces.

In test [8] the test system is Clostridioides difficile. The experiment in a line: Antimicrobial activity against Clostridium difficile obtained from patient with Clostridium difficile infection assessed as bacterial count per gram of wet stool at 100 mg/kg, po BID measured at 21 to 28 days by the two-tailed Wilcoxon matched-pair, signed-rank test. Format: functional, Feces.
For test [9], the system named is Bacteroides. The experiment in a line: Antimicrobial activity against Bacteroides group obtained from patient with Clostridium difficile infection assessed as bacterial count per gram of wet stool at 100 mg/kg, po BID measured on day 10 by the two-tailed Wilcoxon matched-pair, signed-rank test. Format: functional, Feces.
Test [10] relates to Clostridioides difficile. As to the kind of experiment: Antimicrobial activity against Clostridium difficile. Format: functional.
The test system of test [11] is Bacteroides sp. As to the kind of experiment: Antimicrobial activity against […] Bacteroides sp. Format: functional.
In test [12] the test system is Clostridioides difficile. The experiment in a line: Antimicrobial activity against Clostridium difficile obtained from patient with Clostridium difficile infection assessed as bacterial count per gram of wet stool at 100 mg/kg, po BID measured on day 10 by the two-tailed Wilcoxon matched-pair, signed-rank test. Details: dose 100 mg/kg. The settings on record: Feces. The test is classed as functional, organism-based.

Test [13] relates to Clostridioides difficile. The experiment in a line: Antimicrobial activity against Clostridium difficile obtained from patient with Clostridium difficile infection assessed as bacterial count per gram of wet stool at 200 mg/kg, po BID measured on day 10 by the two-tailed Wilcoxon matched-pair, signed-rank test. Details: dose 200 mg/kg. Format: functional, organism-based. The settings on record: Feces.

For test [14], the system named is Clostridioides difficile. The experiment in a line: Antimicrobial activity against Clostridium difficile obtained from patient with Clostridium difficile infection assessed as bacterial count per gram of wet stool at 100 mg/kg, po BID measured on day 4 by the two-tailed Wilcoxon matched-pair, signed-rank test. Format: functional, organism-based. Details: dose 100 mg/kg. The note with it: Feces.

Test [15] concerns Clostridioides difficile. As to the kind of experiment: Antimicrobial activity against Clostridium difficile obtained from patient with Clostridium difficile infection assessed as bacterial count per gram of wet stool at 200 mg/kg, po BID measured on day 4 by the two-tailed Wilcoxon matched-pair, signed-rank test. Format: functional, organism-based. Also on record: dose 200 mg/kg. The note with it: Feces.

Test [16] concerns Clostridioides difficile. The experiment in a line: Antimicrobial activity against Clostridium difficile obtained from patient with Clostridium difficile infection assessed as reduction in bacterial cytotoxin B in patients at 100 mg/kg, po BID measured at 21 to 28 days by the two-tailed Wilcoxon matched-pair, signed-rank test. Also on record: dose 100 mg/kg. The test is classed as functional, organism-based.

Test [17] relates to Bacteroides sp. The experiment in a line: Antimicrobial activity against […] gram-negative Bacteroides sp. The test is classed as functional.
For test [18], the system named is Clostridioides difficile. The experiment in a line: Antimicrobial activity against Clostridium difficile obtained from patient with Clostridium difficile infection assessed as bacterial count per gram of wet stool at 50 mg/kg, po BID measured on day 10 by the two-tailed Wilcoxon matched-pair, signed-rank test. The test is classed as functional, organism-based. Details: dose 50 mg/kg. The note with it: Feces.

In test [19] the test system is Clostridioides difficile. As to the kind of experiment: Antimicrobial activity against Clostridium difficile obtained from patient with Clostridium difficile infection assessed as bacterial count per gram of wet stool at 125 mg/kg, po BID measured at 21 to 28 days by the two-tailed Wilcoxon matched-pair, signed-rank test. Format: functional, Feces.
Test [20] relates to Bacteroides. As to the kind of experiment: Antimicrobial activity against Bacteroides group obtained from patient with Clostridium difficile infection assessed as bacterial count per gram of wet stool at 125 mg/kg, po administered QID measured on day 10 by the two-tailed Wilcoxon matched-pair, signed-rank test. The test is classed as functional, Feces.
Test [21] has as its system Clostridioides difficile. The experiment in a line: Antimicrobial activity against Clostridium difficile obtained from patient with Clostridium difficile infection assessed as bacterial count per gram of wet stool at 125 mg/kg, po BID measured on day 4 by the two-tailed Wilcoxon matched-pair, signed-rank test. Format: functional, organism-based. Details: dose 125 mg/kg. The settings on record: Feces.

Test [22] concerns Clostridioides difficile. The experiment in a line: Antimicrobial activity against Clostridium difficile obtained from patient with Clostridium difficile infection assessed as bacterial count per gram of wet stool at 125 mg/kg, po BID measured on day 10 by the two-tailed Wilcoxon matched-pair, signed-rank test. Format: functional, organism-based. Also on record: dose 125 mg/kg. The note with it: Feces.

Structures are written as SMILES. Converted amounts (≈) assume the structure as drawn. The source made the active and inactive calls. The calls are words filed in the database; no cut-off is given here.

With `CCc1c(Cl)c(O)c(Cl)c(O)c1C(=O)O[C@H]1[C@H](O)[C@H](OC)[C@H](OC/C2=C\C=C\C[C@H](O)/C(C)=C/[C@H](CC)[C@@H](O[C@@H]3OC(C)(C)[C@@H](OC(=O)C(C)C)[C@H](O)[C@@H]3O)/C(C)=C/C(C)=C/C[C@@H]([C@@H](C)O)OC2=O)O[C@@H]1C` [FIDAXOMICIN], the log10cfu in the test with Bacteroides [1] is recorded as 8.2; in the test with Clostridioides difficile [3], 3.9; in the test with Clostridioides difficile [4], 3.1; with Bacteroides [6], 7.3; in the test with Clostridioides difficile [8] it was 3.6; with Bacteroides [9] it was 6.3. The result in the test on Clostridioides difficile [2], in the test with Clostridioides difficile [5], with Clostridioides difficile [7], with Clostridioides difficile [12], in the test with Clostridioides difficile [13] and with Clostridioides difficile [14] was Active. Moreover, the outcome with Clostridioides difficile [15], in the test on Clostridioides difficile [16] and in the test on Clostridioides difficile [18] was Active. The MIC90 in the test on Clostridioides difficile [10] is 0.12 µg/mL (≈ 0.113 µM); in the test with Bacteroides sp. [11] it was over 1020 µg/mL; against Bacteroides sp. [17] it was over 1020 µg/mL.

`CN[C@H](CC(C)C)C(=O)N[C@H]1C(=O)N[C@@H](CC(N)=O)C(=O)N[C@H]2C(=O)N[C@H]3C(=O)N[C@H](C(=O)N[C@H](C(=O)O)c4cc(O)cc(O)c4-c4cc3ccc4O)[C@H](O)c3ccc(c(Cl)c3)Oc3cc2cc(c3O[C@@H]2O[C@H](CO)[C@@H](O)[C@H](O)[C@H]2O[C@H]2C[C@](C)(N)[C@H](O)[C@H](C)O2)Oc2ccc(cc2Cl)[C@H]1O` [VANCOMYCIN]: the log10cfu with Clostridioides difficile [19] was 5.4; in the test with Bacteroides [20], 3.6. In addition, the outcome in the test with Clostridioides difficile [21] and in the test on Clostridioides difficile [22] was Active.

These data come from ChEMBL document CHEMBL1629573, “OPT-80 eliminates Clostridium difficile and is sparing of bacteroides species during treatment of C. difficile infection” (2009).
